In ChEMBL document CHEMBL5614425, “Novel inhibitors of bromodomain and extra-terminal domain trigger cell death in breast cancer cell lines” (2024):

Assays:
[1] = molecular target: T1, NAD-dependent protein deacetylase sirtuin-2 (Homo sapiens) (UniProt Q8IXJ6); assay: Inhibition of SIRT2 (unknown origin) using IU179 as substrate incubated for 30 mins by Fluor de Lys sirtuin assay relative to control; design: concentration or dose not given beside the values
T1 sequence (whole entry): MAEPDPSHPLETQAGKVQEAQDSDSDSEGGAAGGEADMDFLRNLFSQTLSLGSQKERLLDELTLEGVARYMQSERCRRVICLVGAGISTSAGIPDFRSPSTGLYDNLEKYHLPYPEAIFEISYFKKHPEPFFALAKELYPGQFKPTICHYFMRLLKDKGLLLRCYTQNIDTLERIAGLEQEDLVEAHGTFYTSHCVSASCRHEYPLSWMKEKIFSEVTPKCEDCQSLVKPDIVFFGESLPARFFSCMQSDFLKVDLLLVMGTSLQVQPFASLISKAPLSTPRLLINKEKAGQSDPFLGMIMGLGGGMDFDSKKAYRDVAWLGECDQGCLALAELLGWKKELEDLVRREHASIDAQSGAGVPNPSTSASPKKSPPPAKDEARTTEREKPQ

T47D [2] = assay: Antiproliferative activity against human T47D cells assessed as decrease in cell numbers at 10 to 100 uM incubated for 24 hrs by PI staining based analysis relative to control; format: functional; design: scale not given: the % may be the effect or the level left; details: dose 10-100 µM
T47D [3] = assay: Antitumor activity against human T47D cell spheroids assessed as reduction in spheroid growth at 10 to 100 uM measured for >200 hrs by Image J analysis relative to control; format: functional; design: scale not given: the % may be the effect or the level left; details: dose 10-100 µM
T47D [4] = assay: Antitumor activity against human T47D cell spheroids assessed as reduction in spheroid growth at 100 uM measured for >200 hrs by Image J analysis relative to control; format: functional; design: scale not given: the % may be the effect or the level left

| Structure (SMILES) | inhibition [1] | Activity (T47D [2]) | Activity (T47D [3]) | Activity (T47D [4]) |
| --- | --- | --- | --- | --- |
| Cc1ccc(NC(=O)c2ccc(S(=O)(=O)N3CCCCCC3)cc2)c(C)c1 | < 50% | >40% | ~20% | 100% |
| CC1CCCCN1S(=O)(=O)c1ccc(C(=O)Nc2ccc(N3CCOCC3)c3ccncc23)cc1 (centres undefined) | 84% | – | – | – |
| NC(=O)C(NC(=O)CCCOc1ccc2c(c1)CCC(=O)N2)C(N)=O | < 50% | – | – | – |
| COc1cc(/C=N/c2ccc(N3N=C(C)CC3=O)cc2)ccc1O | 50% | – | – | – |

Further lines, with some results ahead:

| inhibition [1] | Structure (SMILES) | Activity (T47D [2]) | Activity (T47D [3]) | Activity (T47D [4]) |
| --- | --- | --- | --- | --- |
| < 50% | Cc1cnc2c(c1)N(C(=O)COc1ccc(Cl)c(C)c1)CCC2 | – | – | – |
| < 50% | CCOc1ccc(C(C)NC(=O)COc2ccc3c(c2)CCC(=O)N3)cc1 (centres undefined) | – | – | – |
